Source: patent US11220488B2, “Crystalline polymorph of Ponesimod” (TEVA PHARMACEUTICALS INTERNATIONAL GMBH, priority 2017, dated 2022)
In brackets after ≈: the same amount, converted by molar mass.

Assay: Solubility measurement by dissolution apparatus, Ponesimod content by liquid chromatography
Assay type: physicochemical
Protocol: The solubility for Ponesimod Form T1, according to this invention, Ponesimod Form A and Form C (described in PCT application WO 2010/046835) was measured by using Dissolution apparatus (Lab India DS8000) at 37° C. Buffers at pH. 1.2, 4.5 and 6.8 were prepared as per the USP 36 Solutions/Buffer Solutions 1209. About 200 mg of Ponesimod Form T1, 150 mg of Ponesimod Forms A and C were added to the 100 mL buffer (pH 1.2, 4.5 and 6.8) in individual flasks to obtain saturated suspension and the suspension was stirred with 250 rpm for 24 hours. Suspension was observed though out stirring period. Samples were drawn at different intervals on completion of 15 mins, 30 mins, 45 mins, 1 hrs, 2 hrs, 3 hrs, 4 hrs and 24 hrs from each flask and filtered through 0.45μ PTFE filter, each solution was analyzed for Ponesimod content by liquid chromatography.

## CCC/N=C1\S/C(=C\c2ccc(OC[C@H](O)CO)c(Cl)c2)C(=O)N1c1ccccc1C [Form A, (R)-5-[3-chloro-4-(2,3-dihydroxy-propoxy)-benz[Z]ylidene]-2-([Z]-propylimino)-3-o-tolyl-thiazolidin-4-one]
pH 1.2 buffer (USP), 37 °C, pH 1.2, simulated gastric fluid, thermodynamic from solid, pH 1.2 buffer, 45 Min
  solubility at 45 min: 120 µg/mL (≈ 260 µM)
pH 1.2 buffer (USP), 37 °C, pH 1.2, simulated gastric fluid, thermodynamic from solid, pH 1.2 buffer, 60 Min
  solubility at 60 min: 120 µg/mL (≈ 260 µM)
pH 1.2 buffer, 37° C., 2 Hrs, listed as A
  Solubility results at pH = 1.2: 0.11 mg/ml
pH 1.2 buffer, 37° C., 3 Hrs, listed as A
  Solubility results at pH = 1.2: 0.11 mg/ml
pH 1.2 buffer, 37° C., 4 Hrs, listed as A
  Solubility results at pH = 1.2: 0.11 mg/ml
pH 1.2 buffer, 37° C., 30 Min, listed as A
  Solubility results at pH = 1.2: 0.13 mg/ml

## CCC/N=C1\S/C(=C\c2ccc(OC[C@H](O)CO)c(Cl)c2)C(=O)N1c1ccccc1C [Form C, (R)-5-[3-chloro-4-(2,3-dihydroxy-propoxy)-benz[Z]ylidene]-2-([Z]-propylimino)-3-o-tolyl-thiazolidin-4-one]
pH 1.2 buffer, 37° C., 2 Hrs, listed as C
  Solubility results at pH = 1.2: 0.09 mg/ml
pH 1.2 buffer, 37° C., 3 Hrs, listed as C
  Solubility results at pH = 1.2: 0.11 mg/ml
pH 1.2 buffer, 37° C., 4 Hrs, listed as C
  Solubility results at pH = 1.2: 0.12 mg/ml
pH 1.2 buffer, 37° C., 15 Min, listed as C
  Solubility results at pH = 1.2: 0.05 mg/ml
pH 1.2 buffer, 37° C., 24 Hrs, listed as C
  Solubility results at pH = 1.2: 0.15 mg/ml
pH 1.2 buffer, 37° C., 30 Min, listed as C
  Solubility results at pH = 1.2: 0.06 mg/ml
pH 1.2 buffer, 37° C., 45 Min, listed as C
  Solubility results at pH = 1.2: 0.07 mg/ml
pH 1.2 buffer, 37° C., 60 Min, listed as C
  Solubility results at pH = 1.2: 0.08 mg/ml

## CCC/N=C1\S/C(=C\c2ccc(OC[C@H](O)CO)c(Cl)c2)C(=O)N1c1ccccc1C [Form T1, (R)-5-[3-chloro-4-(2,3-dihydroxy-propoxy)-benz[Z]ylidene]-2-([Z]-propylimino)-3-o-tolyl-thiazolidin-4-one]
Comparison in words
  Solubility compared to other known crystalline polymorphs of Ponesimod: higher solubility
pH 1.2 buffer, 37° C., 2 Hrs, listed as T1
  Solubility results at pH = 1.2: 0.24 mg/ml
pH 1.2 buffer, 37° C., 3 Hrs, listed as T1
  Solubility results at pH = 1.2: 0.29 mg/ml
pH 1.2 buffer, 37° C., 4 Hrs, listed as T1
  Solubility results at pH = 1.2: 0.31 mg/ml
pH 1.2 buffer, 37° C., 15 Min, listed as T1
  Solubility results at pH = 1.2: 0.07 mg/ml
pH 1.2 buffer, 37° C., 24 Hrs, listed as T1
  Solubility results at pH = 1.2: 0.40 mg/ml
pH 1.2 buffer, 37° C., 30 Min, listed as T1
  Solubility results at pH = 1.2: 0.09 mg/ml
pH 1.2 buffer, 37° C., 45 Min, listed as T1
  Solubility results at pH = 1.2: 0.12 mg/ml
pH 1.2 buffer, 37° C., 60 Min, listed as T1
  Solubility results at pH = 1.2: 0.15 mg/ml

## CCC/N=C1\S/C(=C\c2ccc(OC[C@H](O)CO)c(Cl)c2)C(=O)N1c1ccccc1C [Ponesimod, (R)-5-[3-chloro-4-(2,3-dihydroxy-propoxy)-benz[Z]ylidene]-2-([Z]-propylimino)-3-o-tolyl-thiazolidin-4-one]
Higher pH conditions (e.g. 4.5 and 6.8), 37° C.
  Solubility at higher pH conditions: not soluble
